Patent US7176352B1, “Transgenic Lemnaceae” (Yeda Research and Development Company Ltd., priority 1997, dated 2007)

What was measured:
[1] = tested on: Calli of Spirodela punctata var. Helgm; assay: Regeneration of plants from Spirodela calli; format: in vivo; conditions: B-5 medium, 1% sucrose, scored after 2 weeks; for Regenerating calli No.: 30 calli
Description: Spirodela calli were maintained on B-5 medium (Table 6 below) supplemented with 1.0% sucrose, 3 mg/l 2IP and 10 mg/l 2,4-D. For regeneration, calli were transferred to B-5 medium supplemented with 1,0% sucrose and 2 mg/l 2IP. Fully regenerated S. punctata plants were efficiently obtained within 1–2 weeks. Spirodela calli and the regenerated plants, were grown at 26° C. under continuous fluorescent light (30 μE m^−2s^−1).
Calli of Spirodela punctata var. Helgm, maintained for 7 to 16 weeks on B-5 medium supplemented with 1% sucrose, […] 2IP and 10 mg/l 2,4-D, were transferred to B-5 medium supplemented with 1% sucrose and different concentrations of 2IP. Regenerated plants were visually scored after 2 weeks.

[2] = tested on: Spirodela punctata plants; assay: GUS expression of transformed plants grown on kanamycin or BASTA supplemented SP medium; format: in vivo; conditions: supplement 2 μg/ml in SP medium, 2 to 5 weeks
Description: The method involved wounding plants, co-cultivating them with 5×10^8 bacteria ml^−1 (A. tumefaciens strain EHA105 harboring Ti plasmid pME504) for 30 min. and vacuum infiltration (30 mbar, for 5–10 min). Transformed Spirodela punctata plants were grown in SP medium (Table 2) supplemented with 2 μg/ml kanamycin for 2 to 5 weeks. Six green plants resistant to kanamycin, and a sampling of bleached ones, were assayed for GUS expression.

CC(C)=CCNc1ncnc2nc[nH]c12 [2 IP]
Regenerating calli (%) ([1]; 2 IP 2 mg/l): 73% | Regenerating calli No. ([1]; 2 IP 2 mg/l): 22 | Regenerating calli (%) ([1]; 2 IP 10 mg/l): 0% | Regenerating calli No. ([1]; 2 IP 10 mg/l): 0

NC[C@H]1O[C@H](O[C@H]2[C@H](O)[C@@H](O[C@H]3O[C@H](CO)[C@@H](O)[C@H](N)[C@H]3O)[C@H](N)C[C@@H]2N)[C@H](O)[C@@H](O)[C@@H]1O [Kanamycin]
GUS expression (% fronds) Bleached plants ([2]; bleached plants): 0 % fronds | GUS expression (% fronds) Green plants ([2]; green resistant plants): 83 % fronds
